Assay results: patent US20110152267A1, “Compositions and Methods for Treating Hyperproliferative Disorders” (Texas Tech University System, priority 2009, published 2011)

Experiments:
Format in all cases: cell-based, human
[1] = test system: PANC-1 pancreatic adenocarcinoma cell line; assay: DIMSCAN cytotoxicity, fenretinide + L-threo-sphinganines 3:1 (Example B18)
Procedure: (§1) Cytotoxicity Assay—Once again, cytotoxicity is determined using the DIMSCAN assay system (R. Proffitt et al., Cytometry 24, 204-213 (1996); T. Frgala et al., Mol Cancer Ther. 6:886-97, 2007). The system employs digital imaging microscopy to quantify viable cells, which selectively accumulate fluorescein diacetate to become brightly fluorescent. The system is capable of measuring cytotoxicity over a 4-5 log dynamic range by quenching the residual fluorescence of dead and dying cells with eosin Y and quantifying the total fluorescence of viable cells using digital thresholding. Measured fluorescence is directly proportionate to the number of viable cells. A comparison of the total fluorescence of a drug-treated cell population to the fluorescence of a similar number of untreated cells yields a survival fraction. In brief, 2000 to 10,000 cells/well (depending on size and growth rates) are replicate plated into 60 wells of a 96-well tissue culture plate in 0.1 mL of whole medium and allowed to attach overnight. Drug(s) are then added in 0.05 mL of whole medium to the final concentrations indicated. Drugs (fenretinide, and various chain length L-threo-sphinganines) were tested both as single agents and in a 3:1 ratio of fenretinide:sphinganine. C18-L-threo-sphinganine, or “safingol,” was also tested and results shown for reference. There are 12 wells treated per drug concentration. Twelve wells receive drug vehicle-only to the appropriate final concentration and serve as controls for the plate. Cells are incubated for 96 hours at 37° C. in ambient air with 5% CO2. Fluorescein diacetate is then added to each well in 0.05 mL media to a final concentration of 8 microgram/mL. Cells are incubated for a further 15 minutes at 37° C. and 0.03 mL of 0.5% eosin Y is added to each well. Total fluorescence of viable cells is then measured by digital imaging microscopy. Results were graphed as the ratio of the fluoresecence of drug-treated wells to non-drug treated control wells (i.e., Survival Fraction). All tests were performed at least twice. Representative results are shown.
(§2) The Combination Index (CI) is a term to describe mathematical modeling of the pharmacologic effects on cytotoxicity (cell death) of two drugs in combination based. Cytotoxic “synergy” is defined as a cell death affect which is greater than would be expected from a simple product of the single agent cytotoxicities alone (i.e. an “additive” effect). By Chou-Talalay analysis, a CI<0.9 on a Fraction Affected (“Fa”, i.e. fraction of cells killed) indicates synergy, with smaller numbers indicating greater synergy; a CI of 0.9-1.1 signifies an additive or near-additive effect; and a CI>1.1 means the drug combination is antagonistic.
Fenretinide and L-threo-sphinganines tested in human pancreatic adenocarcinoma (pancreas cancer) cell line, PANC-1.

[2] = test system: SJ-GBM2 Glioblastoma multiforme cell line; assay: DIMSCAN cytotoxicity, fenretinide + L-threo-sphinganines 3:1 (Example B7); design: key to CI (Combination Index): Chou-Talalay CI: <0.9 synergy, 0.9-1.1 additive, >1.1 antagonism; details: 96 h
Procedure: as §1, §2
Fenretinide and L-threo-sphinganines tested in human Glioblastoma multiforme (brain cancer) cell line, SJ-GBM2.

[3] = test system: U-118 Glioblastoma cell line; assay: DIMSCAN cytotoxicity, fenretinide + L-threo-sphinganines 3:1 (Example B5); design: key to CI (Combination Index): CI<0.9 synergy, 0.9-1.1 additive, >1.1 antagonistic; details: U-118 MG, 96 h
Procedure: as §1, §2
Fenretinide and L-threo-sphinganines tested in human Glioblastoma (brain cancer) cell line, U-118.

[4] = test system: PC-3 prostate adenocarcinoma cell line; assay: DIMSCAN cytotoxicity, fenretinide + L-threo-sphinganines 3:1 (Example B17)
Procedure: as §1, §2
Fenretinide and L-threo-sphinganines tested in human prostate adenocarcinoma (prostate cancer) cell line, PC-3.

[5] = test system: RPMI-8226 Multiple Myeloma cell line; assay: DIMSCAN cytotoxicity, fenretinide + L-threo-sphinganines 3:1 (Example B2); details: 96 h
Procedure: as §1, §2
Fenretinide and L-threo-sphinganines tested in human Multiple Myeloma (a cancer of the blood and bone marrow) cell line, RPMI-8226.

[6] = 4-HPR 1.5 μM + L-threo-sphinganine 0.5 μM
[7] = 4-HPR 3 μM + L-threo-sphinganine 1 μM
[8] = 4-HPR 6 μM + L-threo-sphinganine 2 μM
[9] = 4-HPR 9 μM + L-threo-sphinganine 3 μM

Row | Compound | CI [1, 6] | Fa [1, 6] | CI [1, 7] | Fa [1, 7] | CI [1, 8] | Fa [1, 8] | CI [1, 9] | Fa [1, 9] | CI (Combination Index) [2, 6] | Fa (fraction affected) [2, 6] | CI (Combination Index) [2, 7] | Fa (fraction affected) [2, 7] | CI (Combination Index) [2, 8] | Fa (fraction affected) [2, 8] | CI (Combination Index) [2, 9] | Fa (fraction affected) [2, 9] | CI (Combination Index) [3, 6] | Fa (fraction affected) [3, 6] | CI (Combination Index) [3, 7] | Fa (fraction affected) [3, 7] | also measured
1 | CCCCCCCCCCCCCCCCC[C@H](O)[C@@H](N)CO [C20, (2S,3S)-2-amino-1,3-icosanediol] | 1.9 | 0.136 | 1.9 | 0.291 | 1.2 | 0.653 | 0.1 | 0.990 | 0.5 | 0.055 | 0.6 | 0.737 | 0.7 | 0.998 | 0.3 | 1.000 | 1.8 | 0.645 | 0.5 | 0.984 | CI (Combination Index) [3, 8]: 0.3; Fa (fraction affected) [3, 8]: 0.998; CI (Combination Index) [3, 9]: 0.3; Fa (fraction affected) [3, 9]: 0.999; CI [4, 6]: 1.0; Fa [4, 6]: 0.217; CI [4, 7]: 1.1; Fa [4, 7]: 0.393; CI [4, 8]: 1.2; Fa [4, 8]: 0.620; CI [4, 9]: 0.5; Fa [4, 9]: 0.916; CI (Combination Index) [5, 6]: 1.0; Fa (fraction affected) [5, 6]: 0.583; CI (Combination Index) [5, 7]: 1.1; Fa (fraction affected) [5, 7]: 0.867; CI (Combination Index) [5, 8]: 0.9; Fa (fraction affected) [5, 8]: 0.996; CI (Combination Index) [5, 9]: 0.3; Fa (fraction affected) [5, 9]: 1
2 | CCCCCCCCCCCCCCC[C@H](O)[C@@H](N)CO [C18, (2S,3S)-2-amino-1,3-octadecanediol, reference compound] | 2.5 | 0.136 | 2.1 | 0.336 | 1.4 | 0.620 | 1.5 | 0.700 | >>1 | 0.001 | 0.6 | 0.712 | 0.6 | 0.987 | 0.7 | 0.999 | 1.4 | 0.317 | 2.3 | 0.407 | CI (Combination Index) [3, 8]: 0.5; Fa (fraction affected) [3, 8]: 0.976; CI (Combination Index) [3, 9]: 0.3; Fa (fraction affected) [3, 9]: 0.995; CI [4, 6]: 1.1; Fa [4, 6]: 0.202; CI [4, 7]: 1.4; Fa [4, 7]: 0.346; CI [4, 8]: 1.1; Fa [4, 8]: 0.719; CI [4, 9]: 0.7; Fa [4, 9]: 0.918; CI (Combination Index) [5, 6]: 1.0; Fa (fraction affected) [5, 6]: 0.616; CI (Combination Index) [5, 7]: 0.9; Fa (fraction affected) [5, 7]: 0.879; CI (Combination Index) [5, 8]: 0.2; Fa (fraction affected) [5, 8]: 0.997; CI (Combination Index) [5, 9]: >0.1; Fa (fraction affected) [5, 9]: 1
3 | CCCCCCCCCCCCCC[C@H](O)[C@@H](N)CO [C17, (2S,3S)-2-amino-1,3-heptadecanediol] | 1.5 | 0.171 | 1.7 | 0.311 | 0.9 | 0.714 | 0.1 | 0.990 | 0.5 | 0.188 | 0.5 | 0.796 | 0.7 | 0.962 | 0.7 | 0.998 | 1.7 | 0.519 | 1.8 | 0.791 | CI (Combination Index) [3, 8]: 1.5; Fa (fraction affected) [3, 8]: 0.951; CI (Combination Index) [3, 9]: 0.7; Fa (fraction affected) [3, 9]: 0.995; CI [4, 6]: 0.7; Fa [4, 6]: 0.214; CI [4, 7]: 0.9; Fa [4, 7]: 0.338; CI [4, 8]: 0.8; Fa [4, 8]: 0.623; CI [4, 9]: 0.5; Fa [4, 9]: 0.862; CI (Combination Index) [5, 6]: 1.12; Fa (fraction affected) [5, 6]: 0.549; CI (Combination Index) [5, 7]: 1.00; Fa (fraction affected) [5, 7]: 0.859; CI (Combination Index) [5, 8]: 0.43; Fa (fraction affected) [5, 8]: 0.993; CI (Combination Index) [5, 9]: >0.1; Fa (fraction affected) [5, 9]: 1.000
4 | CCCCCCCCCCCCCCCCCC[C@H](O)[C@@H](N)CO [C21] | 2.5 | 0.111 | 2.9 | 0.239 | 1.6 | 0.784 | 0.4 | 0.994 | 1.4 | 0.131 | 1.9 | 0.470 | 2.1 | 0.946 | 2.0 | 0.996 | 1.3 | 0.588 | 1.5 | 0.836 | CI (Combination Index) [3, 8]: 0.6; Fa (fraction affected) [3, 8]: 0.995; CI (Combination Index) [3, 9]: 0.5; Fa (fraction affected) [3, 9]: 0.999; CI [4, 6]: 1.7; Fa [4, 6]: 0.215; CI [4, 7]: 1.4; Fa [4, 7]: 0.350; CI [4, 8]: 1.6; Fa [4, 8]: 0.479; CI [4, 9]: 0.9; Fa [4, 9]: 0.738; CI (Combination Index) [5, 6]: 1.2; Fa (fraction affected) [5, 6]: 0.517; CI (Combination Index) [5, 7]: 1.6; Fa (fraction affected) [5, 7]: 0.722; CI (Combination Index) [5, 8]: 1.6; Fa (fraction affected) [5, 8]: 0.955; CI (Combination Index) [5, 9]: 1.1; Fa (fraction affected) [5, 9]: 0.999
5 | CCCCCCCCCCC[C@H](O)[C@@H](N)CO [C14] | 3.2 | 0.054 | 2.6 | 0.176 | 2.1 | 0.450 | 0.7 | 0.883 | 5.0 | 0.007 | 1.2 | 0.209 | 1.2 | 0.598 | 1.4 | 0.820 | 1.4 | 0.318 | 1.2 | 0.586 | CI (Combination Index) [3, 8]: 1.2; Fa (fraction affected) [3, 8]: 0.814; CI (Combination Index) [3, 9]: 0.4; Fa (fraction affected) [3, 9]: 0.988; CI [4, 6]: 0.7; Fa [4, 6]: 0.192; CI [4, 7]: 1.0; Fa [4, 7]: 0.283; CI [4, 8]: 1.3; Fa [4, 8]: 0.426; CI [4, 9]: 1.2; Fa [4, 9]: 0.634; CI (Combination Index) [5, 6]: 0.8; Fa (fraction affected) [5, 6]: 0.606; CI (Combination Index) [5, 7]: 1.1; Fa (fraction affected) [5, 7]: 0.747; CI (Combination Index) [5, 8]: 1.0; Fa (fraction affected) [5, 8]: 0.93; CI (Combination Index) [5, 9]: 0.4; Fa (fraction affected) [5, 9]: 0.994
